According to article PMC3820767, “Turning Defense into Offense: Defensin Mimetics as Novel Antibiotics Targeting Lipid II” (PLoS Pathogens, 2013):

Assays:
[1] = Surface Plasmon Resonance binding to immobilized 3-Lipid II; settings: SPR; for Binding on Lipid II?: Table S3, initial determination at 10 µM
Procedure, shortened: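 Binding was measured by Surface Plasmon Resonance on a BIAcore T100 instrument at 25°C. Peptides were injected over the sensor flow-cells at 30 µl/min in running buffer of 10 mM HEPES, 150 mM NaCl, 0.05% surfactant P20, pH 7.4 (±3 mM EDTA) with 10% DMSO. Control flow-cell signals were subtracted, surfaces were regenerated with 50 mM NaOH, and isotherms were fitted with BIAcore software.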

[2] = system: Escherichia coli ATCC 25922; assay: Antibacterial killing, 96-well turbidimetric (modified vCC) assay; type: cell-based; settings: for active against E.coli (IC100%): Table S3, concentration at which 100% killing occurred, no bacterial regrowth, No = not active
Procedure, shortened: (§1)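 For the S. pneumoniae strains, MIC values follow CLSI broth microdilution standards. The staphylococcal and E. coli killing assay instead pre-incubated bacteria with compound for 30 min in 10 mM phosphate buffer containing 5% DMSO before adding 2× Mueller-Hinton medium, monitoring growth over 12 hours.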

[3] = system: Staphylococcus aureus ATCC 29213; assay: as above; type: cell-based
Procedure, shortened: as §1

[4] = Cytotoxicity by MTT assay; type: cell-based, human; settings: human, Caco-2 cells; Table S3; No = not cytotoxic; read-out: cytotoxic for Caco II (C50% survival)
[5] = system: Streptococcus pneumonia (PRSP) MMX884; assay: Broth microdilution susceptibility testing (CLSI); type: cell-based, Streptococcus pneumoniae
Method: (§2) The antibacterial activity of defensin mimetics against Staphylococcus aureus ATCC 29213 and Escherichia coli 25922 was carried out in a 96-well turbidimetric assay essentially as described previously with the following modifications: bacteria were exposed for 30 min to compounds in 10 mM phosphate buffer containing 5% DMSO prior to addition of 2× Muller-Hinton medium. Bacterial growth was monitored for 12 hours and data were analyzed as described. Determination of MICs was performed by Micromyx, LLC (Kalamazoo, Michigan) according to CLSI standards.

[6] = system: Enterococcus faecalis MMX101-ATCC 29212; assay: Broth microdilution susceptibility testing (CLSI); type: cell-based
Method: as §2

[7] = system: Staphylococcus aureus MMX100-ATCC 29213; assay: Broth microdilution susceptibility testing (CLSI); type: cell-based
Method: as §2

[8] = system: Streptococcus pneumoniae MMX1195-ATCC 49619; assay: Broth microdilution susceptibility testing (CLSI); type: cell-based
Method: as §2

[9] = system: Staphylococcus aureus (MRSA) MMX757; assay: Broth microdilution susceptibility testing (CLSI); type: cell-based
Method: as §2

[10] = system: Escherichia coli MMX102-ATCC 25922; assay: Broth microdilution susceptibility testing (CLSI); type: cell-based
Method: as §2

[11] = system: Enterococcus faecalis (VRE) MMX848; assay: Broth microdilution susceptibility testing (CLSI); type: cell-based
Method: as §2

[12] = system: Pseudomonas aeruginosa MMX103-ATCC 27853; assay: Broth microdilution susceptibility testing (CLSI); type: cell-based
Method: as §2

Caco-2 = assay: Cytotoxicity by MTT assay; type: cell-based, human
Jurkat = assay: Cytotoxicity by MTT assay; type: cell-based, human
[13] = system: Staphylococcus aureus ATCC 29213; assay: Antagonization of defensin antibacterial activity by 3-Lipid II; type: cell-based; settings: 50 µM defensin pre-incubated with 3-Lipid II at 1:1 molar ratio
Method: Antagonization of the antibacterial activity of defensins against Staphylococcus aureus ATCC 29213 was carried out in a 96-well turbidimetric assay essentially as described previously. Defensins (50 µM final concentration) were pre-incubated with 3-Lipid II at 1∶1, 1∶2.5 and 1∶5 defensin: Lipid II molar ratios for 30 min at RT. Following incubation, solutions were diluted two-fold in ten steps and bacteria were added. Defensin activity was neutralized by the addition of Mueller Hinton broth. Bacterial growth was monitored for 12 hours and data were analyzed as described.

[14] = concentration resulting in 100% killing after 30 min exposure, modified vCC assay

Compound	Binding on Lipid II? [1]	active against E.coli (IC100%) [2]	active against S.aureus (IC100%) ([3]; Table S3, concentration at which 100% killing occurred, no bacterial regrowth, No = not active)	IC50 [4] [µM]	MIC Streptococcus pneumonia (PRSP) 884-NA [5] [µg/mL]	Kd ([1]; immobilized 3-Lipid II) [µM]	MIC Enterococcus faecalis 101-29212 [6] [µg/mL]	MIC Staphylococcus aureus 100-29213 [7] [µg/mL]	MIC Streptococcus pneumoniae 1195-49619 [8] [µg/mL]	MIC Staphylococcus aureus (MRSA) 757-NA [9] [µg/mL]	MIC Escherichia coli 102-25922 [10] [µg/mL]	MIC Enterococcus faecalis (VRE) 848-NA [11] [µg/mL]	MIC Pseudomonas aeruginosa 103-27853 [12] [µg/mL]	Bacterial Killing E. coli [2, 14] [µM]	Bacterial Killing S. aureus [3, 14] [µM]	IC50 (Caco-2) [µM]	IC50 (Jurkat) [µM]	antagonization of bactericidal activity by Lipid II [13]
OCC1c2ccccc2-c2ccccc21 [Compound 4121-0081, 9H-fluoren-9-ylmethanol]	No	No	No	202														
CC[n+]1c(/C=C/C=C2C=C(/C=C/N(C)c3ccccc3)CC(C)(C)C/2)sc2ccccc21.[I-] [Compound 5107930, 2-[(1E)-3-[(1E)-5,5-dimethyl-3-[(E)-2-[methyl(phenyl)amino]ethenyl]cyclohex-2-en-1-ylidene]prop-1-en-1-yl]-3-ethyl-1,3-benzothiazol-3-ium iodide]	Yes	125 µM			>64	3.64	16	16	>64	16	>16	16	>16	125	23.4	27.9	> 223	
HNP-1: chemically synthesized wild-type human alpha-defensin Human Neutrophil peptide-1																		partly antagonized by one order of magnitude
